Data as given in patent US10370405B2, “C-3 novel triterpenone with C-28 amide derivatives as HIV inhibitors” (HETERO LABS LIMITED, priority 2016, dated 2019).
Like-named read-outs stand apart in the source and are kept apart here.

Experiments:
[1] = test system: HIV-1 strain 92HT599; assay: Antiviral activity: p24 estimation in MT2 cells infected with HIV-1; assay type: cell-based; settings: for IC50: Human immunodeficiency virus 1, MT2; for inhibition at 0.01 µM / inhibition at 0.1 µM / inhibition at 1 µM: Human immunodeficiency virus 1, MT2 cells, HIV-1 92HT599, p24, ~96 hours
Protocol: MT2 cells were infected with HIV-1 strain 92HT599 (10 TCID 50/30000 cells). The infected cells were plated at the concentration of ˜30 000 cells per well in 96 well plate. Test compound was added to the micro plate in defined format with the final concentration of DMSO (vehicle) is not more than 1%. Incubation was carried out in CO2 incubator for ˜96 hours for viral infection. At the end of incubation period an aliquot from each well was taken for p24 estimation. The quantitation of p24 is an index for antiviral activity of the compound. Percent inhibition was calculated with reference to control values (vehicle controls). P-24 estimation was carried out using Advance biosciences kit as per the procedure detailed by supplier.

[2] = in vitro
Protocol: On day 1 calculate the number of cells required for the assay and seed 3×10^4 cells in 200 μl per well. Weigh the compound and dissolve it in DMSO to get 10 mM stock which is further diluted to 3 mM and 1 mM. The drugs from these stocks were added to plate to get final concentration of 100 μM, 30 μM and 10 μM. […] Incubate for 4 days in 5% CO2 incubator at 37° C. On day 4, 100 μl of medium was removed from each well without disturbing the cells. Add 10 μl of MTT reagent and incubate for 4 hours at 5% CO2 incubator at 37° C. for formation of crystals. Add 200 μl of 0.1N acidic isopropanol to dissolve the crystals and read the plate at 590 nm.

[3] = Single dose oral pharmacokinetic study; assay type: in vivo; settings: mouse, plasma; Mice oral PK @30 mg/kg
Protocol: The test item was administered through oral route to animals (rat/mice) at 30 mg/kg dose in a suitable vehicle (10% Solutol+20% PEG) at 10 ml/kg dose volume. Blood samples (˜50 μL at each time point) were collected from retro-orbital plexus using K3 EDTA as anticoagulant in eppendorf tubes at defined time intervals 30 minutes, 1 hour, 2 hour, 4 hour, 8 hour, 24 hour & 48 hour under light ether anaesthesia. The samples were centrifuged at 3500×g to separate plasma and stored at −80° C. until analysis. Plasma […] for Mice were processed as per described in sample preparation.
Standard solutions of the test compound 1 mg/mL solutions were prepared in DMSO and further dilutions were made in methanol. The calibration curve samples for LCMSMS analysis were prepared by spiking 25 μl of Mice plasma with 2.5 μl and of the appropriate working standard solution to obtain final concentrations 0.078, 0.156, 0.312, 0.625, 1.25, 2.5, 5, 10, 20 & 40 µg/ml. To the test compound plasma extraction was carried out using Acetonitrile precipitation. After reconstitution with solvent (50% Acetonitrile in Buffer) samples were analyzed by LCMSMS to get the concentrations to calculate PK Parameters.

[4] = 0% serum, read-out: Antiviral activity IC50 (nM) 0%
[5] = read-out: Antiviral activity IC50 (nM) 40% serum

CC(C)C1=C2[C@H]3CC[C@@H]4[C@@]5(C)CC[C@H](OC(=O)[C@H]6C[C@@H](C(=O)O)C6(C)C)C(C)(C)[C@@H]5CC[C@@]4(C)[C@]3(C)CC[C@@]2(C(=O)N2CC[C@@H](N3CCCC3)C2)CC1=O [Example 4, (1R,3S)-3-((((3aR,5aR,5bR,7aR,9S,11aR,11bR,13aS)-3a-((R)-[1,3′-bipyrrolidine]-1′-carbonyl)-1-isopropyl-5a,5b,8,8,11a-pentamethyl-2-oxo-3,3a,4,5,5a,5b,6,7,7a,8,9,10,11,11a,11b,12,13,13a-octadecahydro-2H-cyclopenta[a]chrysen-9-yl)oxy)carbonyl)-2,2-dimethylcyclobutane-1-carboxylic acid]
IC50 [1, 4]: 0.68 nM | IC50 [1, 5]: 54.5 nM | inhibition at 0.01 µM [1]: 100% | inhibition at 0.1 µM [1]: 100% | inhibition at 1 µM [1]: 100% | viability at 4 days, 10 μM [2]: 62% | viability at 4 days, 30 μM [2]: 6% | viability at 4 days, 100 μM [2]: 2%

CC(C)C1=C2[C@H]3CC[C@@H]4[C@@]5(C)CC[C@H](OC(=O)[C@H]6C[C@@H](C(=O)O)C6(C)C)C(C)(C)[C@@H]5CC[C@@]4(C)[C@]3(C)CC[C@@]2(C(=O)N2CCC[C@H]2CN2CCC[C@H]2CO)CC1=O [Example 5, (1R,3S)-3-((((3aR,5aR,5bR,7aR,9S,11aR,11bR,13aS)-3a-((S)-2-(((S)-2-(hydroxymethyl)pyrrolidin-1-yl)methyl)pyrrolidine-1-carbonyl)-1-isopropyl-5a,5b,8,8,11a-pentamethyl-2-oxo-3,3a,4,5,5a,5b,6,7,7a,8,9,10,11,11a,11b,12,13,13a-octadecahydro-2H-cyclopenta[a]chrysen-9-yl)oxy)carbonyl)-2,2-dimethlcyclobutane-1-carboxylic acid]
IC50 [1, 4]: 0.93 nM | IC50 [1, 5]: 25.5 nM | inhibition at 0.01 µM [1]: 100% | inhibition at 0.1 µM [1]: 100% | inhibition at 1 µM [1]: 100% | viability at 4 days, 10 μM [2]: 70% | viability at 4 days, 30 μM [2]: 70% | viability at 4 days, 100 μM [2]: 73%

CC(C)C1=C2[C@H]3CC[C@@H]4[C@@]5(C)CC[C@H](OC(=O)[C@H]6C[C@@H](C(=O)O)C6(C)C)C(C)(C)[C@@H]5CC[C@@]4(C)[C@]3(C)CC[C@@]2(C(=O)N2CCC[C@H]2c2ncc(-c3ccc(F)cc3)[nH]2)CC1=O [Example 2, (1R,3S)-3-((((3aR,5aR,5bR,7aR,9S,11aR,11bR,13aS)-3a-((S)-2-(5-(4-fluorophenyl)-1H-imidazol-2-yl)pyrrolidine-1-carbonyl)-1-isopropyl-5a,5b,8,8,11a-pentamethyl-2-oxo-3,3a,4,5,5a,5b,6,7,7a,8,9,10,11,11a,11b,12,13,13a-octadecahydro-2H-cyclopenta[a]chrysen-9-yl)oxy)carbonyl)-2,2-dimethlcyclobutane-1-carboxylic acid]
IC50 [1, 4]: 3.89 nM | IC50 [1, 5]: 51.2 nM | inhibition at 0.01 µM [1]: 60% | inhibition at 0.1 µM [1]: 100% | inhibition at 1 µM [1]: 100% | viability at 4 days, 10 μM [2]: 100% | viability at 4 days, 30 μM [2]: 100% | viability at 4 days, 100 μM [2]: 90% | AUC(0-t) [3]: 148 µg·h/mL | Cmax [3]: 11900 ng/mL

CC(C)C1=C2[C@H]3CC[C@@H]4[C@@]5(C)CC[C@H](OC(=O)[C@H]6C[C@@H](C(=O)O)C6(C)C)C(C)(C)[C@@H]5CC[C@@]4(C)[C@]3(C)CC[C@@]2(C(=O)N2CCC[C@H]2CN2CCC(F)(F)CC2)CC1=O [Example 7, (1R,3S)-3-((((3aR,5aR,5bR,7aR,9S,11aR,11bR,13aS)-3a-((S)-2-((4,4-difluoropiperidin-1-yl)methyl)pyrrolidine-1-carbonyl)-1-isopropyl-5a,5b,8,8,11a-pentamethyl-2-oxo-3,3a,4,5,5a,5b,6,7,7a,89,10,11,11a,11b,12,13,13a-octadecahydro-2H-cyclopenta[a]chrysen-9-yl)oxy)carbonyl)-2,2-dimethylcyclobutane-1-carboxylic acid]
IC50 [1, 4]: 24.7 nM | IC50 [1, 5]: 313 nM | inhibition at 0.01 µM [1]: 100% | inhibition at 0.1 µM [1]: 100% | inhibition at 1 µM [1]: 100% | viability at 4 days, 10 μM [2]: 65% | viability at 4 days, 30 μM [2]: 9% | viability at 4 days, 100 μM [2]: 8% | AUC(0-t) [3]: 28.8 µg·h/mL | Cmax [3]: 7410 ng/mL

CC(C)C1=C2[C@H]3CC[C@@H]4[C@@]5(C)CC[C@H](OC(=O)[C@H]6C[C@@H](C(=O)O)C6(C)C)C(C)(C)[C@@H]5CC[C@@]4(C)[C@]3(C)CC[C@@]2(C(=O)NC(C)(C)c2ncc(-c3ccc(Cl)cc3)[nH]2)CC1=O [Example 11, (1R,3S)-3-((((3aR,5aR,5bR,7aR,9S,11aR,11bR,13aS)-3a-((2-(5-(4-chlorophenyl)-1H-imidazol-2-yl)propan-2-yl)carbamoyl)-1-isopropyl-5a,5b,8,8,11a-pentamethyl-2-oxo-3,3a,4,5,5a,5b,6,7,7a,8,9,10,11,11a,11b,12,13,13a-octadecahydro-2H-cyclopenta[a]chrysen-9-yl)oxy)carbonyl)-2,2-dimethylcyclobutane-1-carboxylic acid]
IC50 [1, 4]: 2.93 nM | IC50 [1, 5]: 118 nM | inhibition at 0.01 µM [1]: 92% | inhibition at 0.1 µM [1]: 99% | inhibition at 1 µM [1]: 99% | viability at 4 days, 10 μM [2]: 48% | viability at 4 days, 30 μM [2]: 3% | viability at 4 days, 100 μM [2]: 4% | AUC(0-t) [3]: 143 µg·h/mL | Cmax [3]: 10000 ng/mL

CC(C)C1=C2[C@H]3CC[C@@H]4[C@@]5(C)CC[C@H](OC(=O)[C@H]6C[C@@H](C(=O)O)C6(C)C)C(C)(C)[C@@H]5CC[C@@]4(C)[C@]3(C)CC[C@@]2(C(=O)N2CCC[C@H]2CN2CCCC2)CC1=O [Example 13, (1R,3S)-3-((((3aR,5aR,5bR,7aR,9S,11aR,1 bR,13aS)-1-isopropyl-5a,5b,8,8,11a-pentamethyl-2-oxo-3a-((S)-2-(pyrrolidin-1-ylmethyl)pyrrolidine-1-carbonyl)-3,3a,4,5,5a,5b,6,7,7a,8,9,10,11,11a,11b,12,13,13a-octadecahydro-2H-cyclopenta[a]chrysen-9-yl)oxy)carbonyl)-2,2-dimethylcyclobutane-1-carboxylic acid]
IC50 [1, 4]: 0.73 nM | IC50 [1, 5]: 17.1 nM | inhibition at 0.01 µM [1]: 96% | inhibition at 0.1 µM [1]: 100% | inhibition at 1 µM [1]: 100% | viability at 4 days, 10 μM [2]: 69% | viability at 4 days, 30 μM [2]: 26% | viability at 4 days, 100 μM [2]: 28% | AUC(0-t) [3]: 320 µg·h/mL | Cmax [3]: 17000 ng/mL

CC(C)C1=C2[C@H]3CC[C@@H]4[C@@]5(C)CC[C@H](OC(=O)[C@H]6C[C@@H](C(=O)O)C6(C)C)C(C)(C)[C@@H]5CC[C@@]4(C)[C@]3(C)CC[C@@]2(C(=O)N2CCC[C@H]2CN2CCC(F)(F)C2)CC1=O [Example 6, (1R,3S)-3-((((3aR,5aR,5bR,7aR,9S,11aR,11bR,13aS)-3a-((S)-2-((3,3-difluoropyrrolidin-1-yl)methyl)pyrrolidine-1-carbonyl)-1-isopropyl-5a,5b,8,8,11a-pentamethyl-2-oxo-3,3a,4,5,5a,5b,6,7,7a,8,9,10,11,11a,11b,12,13,13a-octadecahydro-2H-cyclopenta[a]chrysen-9-yl)oxy)carbonyl)-2,2-dimethylcyclobutane-1-carboxylic acid]
IC50 [1, 4]: 0.72 nM | IC50 [1, 5]: 203 nM | inhibition at 0.01 µM [1]: 100% | inhibition at 0.1 µM [1]: 100% | inhibition at 1 µM [1]: 100% | viability at 4 days, 10 μM [2]: 57% | viability at 4 days, 30 μM [2]: 10% | viability at 4 days, 100 μM [2]: 6% | AUC(0-t) [3]: 76.6 µg·h/mL | Cmax [3]: 11500 ng/mL

CC(C)C1=C2[C@H]3CC[C@@H]4[C@@]5(C)CC[C@H](OC(=O)[C@H]6C[C@@H](C(=O)O)C6(C)C)C(C)(C)[C@@H]5CC[C@@]4(C)[C@]3(C)CC[C@@]2(C(=O)N2CCC[C@H]2CN2CCC(F)CC2)CC1=O [Example 10, (1R,3S)-3-((((3aR,5aR,5bR,7aR,9S,11aR,11bR,13aS)-3a-((S)-2-((4-fluoropiperidin-1-yl)methyl)pyrrolidine-1-carbonyl)-1-isopropyl-5a,5b,8,8,11a-pentamethyl-2-oxo-3,3a,4,5,5a,5b,6,7,7a,8,9,10,11,11a,11b,12,13,13a-octadecahydro-2H-cyclopenta[a]chrysen-9-yl)oxy)carbonyl)-2,2-dimethylcyclobutane-1-carboxylic acid]
IC50 [1, 4]: 1.06 nM | IC50 [1, 5]: 0.93 nM | inhibition at 0.01 µM [1]: 97% | inhibition at 0.1 µM [1]: 100% | inhibition at 1 µM [1]: 100% | viability at 4 days, 10 μM [2]: 31% | viability at 4 days, 30 μM [2]: 4% | viability at 4 days, 100 μM [2]: 4%
